Test results as given in PMC6010046, “Evaluation of polyphenols from Broussonetia papyrifera as coronavirus protease inhibitors” (Journal of Enzyme Inhibition and Medicinal Chemistry, 2017).
“Also recorded” adds a separate entry of the source. Like-named read-outs stand apart in the source and are kept apart here.

How the values were obtained:
SARS-CoV 3CL^pro = SARS-CoV 3CL^pro (Severe acute respiratory syndrome coronavirus, UniProt P0C6X7); assay: biochemical
SARS-CoV PL^pro [1] = target: T1, SARS-CoV PL^pro (Severe acute respiratory syndrome coronavirus, UniProt P0C6X7); format: biochemical
MERS-CoV 3CL^pro = MERS-CoV 3CL^pro (Middle East respiratory syndrome-related coronavirus, UniProt K9N7C7); assay: biochemical
Sequence of MERS-CoV 3CL^pro (K9N7C7 3247-3553 limits assumed): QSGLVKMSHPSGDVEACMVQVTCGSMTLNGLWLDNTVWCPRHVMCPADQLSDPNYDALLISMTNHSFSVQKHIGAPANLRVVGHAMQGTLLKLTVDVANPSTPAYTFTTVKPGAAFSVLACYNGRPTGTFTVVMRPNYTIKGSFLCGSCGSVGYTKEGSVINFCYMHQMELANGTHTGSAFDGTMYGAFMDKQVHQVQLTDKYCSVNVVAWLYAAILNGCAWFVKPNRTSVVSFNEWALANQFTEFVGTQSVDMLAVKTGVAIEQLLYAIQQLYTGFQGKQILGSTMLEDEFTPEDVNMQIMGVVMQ

MERS-CoV PL^pro = MERS-CoV PL^pro (Middle East respiratory syndrome-related coronavirus, UniProt K9N7C7); assay: biochemical
Sequence of MERS-CoV PL^pro (K9N7C7 1436-1803 limits assumed): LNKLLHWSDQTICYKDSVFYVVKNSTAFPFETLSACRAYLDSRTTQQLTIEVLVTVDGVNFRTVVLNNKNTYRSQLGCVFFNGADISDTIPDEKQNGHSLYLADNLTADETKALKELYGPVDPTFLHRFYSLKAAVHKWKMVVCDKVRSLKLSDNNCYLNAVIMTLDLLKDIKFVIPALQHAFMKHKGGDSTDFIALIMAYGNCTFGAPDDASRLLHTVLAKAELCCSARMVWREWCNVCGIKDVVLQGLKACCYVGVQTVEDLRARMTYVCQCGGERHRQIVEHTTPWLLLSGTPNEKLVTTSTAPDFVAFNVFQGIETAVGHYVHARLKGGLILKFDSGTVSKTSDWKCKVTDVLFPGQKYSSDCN

SARS-CoV PL^pro [2] = target: T1, SARS-CoV PL^pro; assay: biochemical; format: binding; conditions: for kon: read-out: association rate constant ka; for koff: read-out: dissociation rate constant kd

## CC(C)=CCc1cc(C(=O)/C=C/c2ccc(O)cc2)c(O)cc1O [Compound 1, broussochalcone B]
SARS-CoV 3CL^pro
  IC50: 57.8 ± 0.5 µM
SARS-CoV PL^pro [1]
  SARS-CoV PL^pro, LRLRGG-AMC, Inhibition type: Noncompetitive (6.6 ± 0.5)
MERS-CoV 3CL^pro
  IC50: 27.9 ± 1.2 µM
MERS-CoV PL^pro
  IC50: 113 ± 10.1 µM
SARS-CoV PL^pro [2]
  Kd: 74 µM
  kon: 56 M⁻¹ s⁻¹
  koff: 0.00412 s⁻¹

## CC(C)=CCc1cc(C(=O)/C=C/c2ccc(O)c(O)c2)c(O)cc1O [Compound 2, broussochalcone A]
SARS-CoV 3CL^pro
  IC50: 88.1 ± 13 µM
SARS-CoV PL^pro [1]
  SARS-CoV PL^pro, LRLRGG-AMC, Inhibition type: noncompetitive inhibition; also recorded: Noncompetitive (8.0 ± 0.4)
MERS-CoV 3CL^pro
  IC50: 36.2 ± 0.4 µM
MERS-CoV PL^pro
  IC50: 42.1 ± 5 µM
SARS-CoV PL^pro [2]
  Kd: 130 µM
  kon: 29.9 M⁻¹ s⁻¹
  koff: 0.00388 s⁻¹

## CC1(C)C=Cc2cc(C(=O)/C=C/c3ccc(O)cc3)c(O)cc2O1 [Compound 3, 4-hydroxyisolonchocarpin]
SARS-CoV 3CL^pro
  IC50: 203 ± 3.9 µM
SARS-CoV PL^pro [1]
  SARS-CoV PL^pro, LRLRGG-AMC, Inhibition type: Noncompetitive (27.7 ± 1.7)
MERS-CoV 3CL^pro
  IC50: 194 ± 15.6 µM
MERS-CoV PL^pro
  IC50: 172 ± 10.2 µM

## CC(C)=CCc1cc(-c2oc3cc(O)c(CC=C(C)C)c(O)c3c(=O)c2O)cc(O)c1O [Compound 4, papyriflavonol A]
SARS-CoV 3CL^pro
  IC50: 104 ± 17.4 µM
SARS-CoV PL^pro [1]
  SARS-CoV PL^pro, LRLRGG-AMC, Inhibition type: noncompetitive inhibition; also recorded: Noncompetitive (5.9 ± 0.4)
MERS-CoV 3CL^pro
  IC50: 64.5 ± 4.9 µM
MERS-CoV PL^pro
  IC50: 113 ± 7.3 µM
SARS-CoV PL^pro [2]
  Kd: 212 µM
  kon: 21 M⁻¹ s⁻¹
  koff: 0.00445 s⁻¹
other
  melting point: 202 to 204 °C

## CC(C)=CCc1cc(C2CCc3ccc(O)cc3O2)cc(O)c1O (stereo not drawn) [Compound 5, 3′-(3-methylbut-2-enyl)-3′,4′,7-trihydroxyflavane]
SARS-CoV 3CL^pro
  IC50: 30.2 ± 6.8 µM
SARS-CoV PL^pro [1]
  SARS-CoV PL^pro, LRLRGG-AMC, Inhibition type: Noncompetitive (15.9 ± 0.8)
MERS-CoV 3CL^pro
  IC50: 34.7 ± 2 µM
MERS-CoV PL^pro
  IC50: 48.8 ± 6.6 µM

## CC(C)=CCc1cc([C@@H]2CCc3ccc(O)cc3O2)c(CC=C(C)C)c(O)c1O [Compound 6, kazinol A]
SARS-CoV 3CL^pro
  IC50: 84.8 ± 10.4 µM
SARS-CoV PL^pro [1]
  SARS-CoV PL^pro, LRLRGG-AMC, Inhibition type: Noncompetitive (40.5 ± 3.4)
MERS-CoV PL^pro
  IC50: 88.5 ± 3.9 µM

## CC(C)=CCc1c([C@@H]2CCc3ccc(O)cc3O2)cc2c(c1O)OC(C)(C)C=C2 [Compound 7, kazinol B]
SARS-CoV 3CL^pro
  IC50: 233 ± 6.7 µM
SARS-CoV PL^pro [1]
  SARS-CoV PL^pro, LRLRGG-AMC, Inhibition type: Noncompetitive (36.7 ± 2.7)
MERS-CoV PL^pro
  IC50: 94.9 ± 13.1 µM

## CC(C)=CCc1c([C@@H]2CCc3ccc(O)cc3O2)cc2c(c1O)OC(C)(C)C(O)C2O (stereo partly drawn) [Compound 8, broussoflavan A]
SARS-CoV 3CL^pro
  IC50: 92.4 ± 2.1 µM
SARS-CoV PL^pro [1]
  SARS-CoV PL^pro, LRLRGG-AMC, Inhibition type: Noncompetitive (23.4 ± 1.6)
MERS-CoV 3CL^pro
  IC50: 126 ± 17.4 µM
MERS-CoV PL^pro
  IC50: 49.1 ± 7.5 µM
other
  melting point: 238 to 240 °C

## CC(C)=CCc1c(CCCc2ccc(O)cc2O)cc(O)c(O)c1CC=C(C)C [Compound 9, kazinol F]
SARS-CoV 3CL^pro
  IC50: 43.3 ± 10.4 µM
SARS-CoV PL^pro [1]
  SARS-CoV PL^pro, LRLRGG-AMC, Inhibition type: Noncompetitive (12.1 ± 0.7)
MERS-CoV 3CL^pro
  IC50: 135 ± 5.1 µM
MERS-CoV PL^pro
  IC50: 39.5 ± 5.1 µM

## COc1cc(O)ccc1CCCc1cc(O)c(O)c(CC=C(C)C)c1CC=C(C)C [Compound 10, kazinol J]
SARS-CoV 3CL^pro
  IC50: 64.2 ± 1.7 µM
SARS-CoV PL^pro [1]
  SARS-CoV PL^pro, LRLRGG-AMC, Inhibition type: Noncompetitive (10.7 ± 0.9)
MERS-CoV 3CL^pro
  IC50: 109 ± 3.7 µM
MERS-CoV PL^pro
  IC50: 55 ± 1.3 µM
SARS-CoV PL^pro [2]
  Kd: 804 µM
  kon: 7.3 M⁻¹ s⁻¹
  koff: 0.00591 s⁻¹

## O=C(/C=C/c1ccc(O)cc1)c1ccc(O)cc1O [Isoliquiritigenin, isoliquiritigenin, reference compound]
SARS-CoV 3CL^pro
  IC50: 61.9 ± 11 µM
SARS-CoV PL^pro [1]
  SARS-CoV PL^pro, LRLRGG-AMC, Inhibition type: Noncompetitive (23.0 ± 0.9)

## O=c1c(O)c(-c2ccc(O)cc2)oc2cc(O)cc(O)c12 [Kaempferol, kaempferol, reference compound]
SARS-CoV 3CL^pro
  IC50: 116 ± 7.1 µM
SARS-CoV PL^pro [1]
  SARS-CoV PL^pro, LRLRGG-AMC, Inhibition type: Noncompetitive (13.7 ± 0.8)
MERS-CoV 3CL^pro
  IC50: 35.3 ± 5.3 µM
MERS-CoV PL^pro
  IC50: 206.6 ± 1.7 µM

## O=c1c(O)c(-c2ccc(O)c(O)c2)oc2cc(O)cc(O)c12 [Quercetin, quercetin, reference compound]
SARS-CoV PL^pro [1]
  SARS-CoV PL^pro, LRLRGG-AMC, Inhibition type: Noncompetitive (7.0 ± 0.7)
MERS-CoV 3CL^pro
  IC50: 34.8 ± 1.2 µM

## O=c1c(O[C@@H]2O[C@H](CO)[C@H](O)[C@H](O)[C@H]2O)c(-c2ccc(O)c(O)c2)oc2cc(O)cc(O)c12 [Quercetin-β-galactoside, quercetin-β-galactoside, reference compound]
SARS-CoV PL^pro [1]
  SARS-CoV PL^pro, LRLRGG-AMC, Inhibition type: Noncompetitive (56.1 ± 2.5)
MERS-CoV 3CL^pro; pH 6, read-out: MERS-CoV 3CL^pro, IC50
  IC50: 68 ± 2.4 µM
MERS-CoV PL^pro; pH 5.5, read-out: MERS-CoV PL^pro, IC50
  IC50: 129 ± 14.5 µM
